Drawing on ChEMBL document CHEMBL5131499, “Design, synthesis and glycosidase inhibition of C-4 branched LAB and DAB derivatives” (Eur J Med Chem, 2022), this text covers inhibition and IC50 for four compounds.

For one assay, the species on record is Sus scrofa. In words: Inhibition of porcine kidney alpha-trehalase assessed as release of p-nitrophenol at 1000 uM using p-nitrophenyl glycoside as substrate by spectrometric assay relative to control.
The target of assay [1] is Sucrase-isomaltase, intestinal (Rattus norvegicus, UniProt P23739). In words: Inhibition of rat intestinal sucrase assessed as release of p-nitrophenol using p-nitrophenyl glycoside as substrate by spectrometric assay.
Assay [2] addresses T1, Lysosomal alpha-glucosidase (Homo sapiens, UniProt P10253). As to the kind of experiment: Inhibition of human lysosomal alpha glucosidase assessed as release of p-nitrophenol using p-nitrophenyl glycoside as substrate by spectrometric assay.
Another assay relates to Prunus dulcis. In words: Inhibition of almond beta-glucosidase assessed as release of p-nitrophenol at 1000 uM using p-nitrophenyl glycoside as substrate by spectrometric assay relative to control.
Another assay relates to Saccharomyces cerevisiae. As to the kind of experiment: Inhibition of yeast alpha-glucosidase assessed as release of p-nitrophenol at 1000 uM using p-nitrophenyl glycoside as substrate by spectrometric assay relative to control.
Assay [3] can be described thus: Inhibition of rice alpha-glucosidase assessed as release of p-nitrophenol using p-nitrophenyl glycoside as substrate by spectrometric assay. Also on record: species or system Oryza sativa.
The species entered for assay [4] is Bos taurus. In words: Inhibition of bovine liver beta-glucosidase assessed as release of p-nitrophenol at 1000 uM using p-nitrophenyl glycoside as substrate by spectrometric assay relative to control.
Assay [5] concerns the target Alpha-galactosidase (Coffea arabica) (UniProt Q42656). As to the kind of experiment: Inhibition of coffee beans alpha-galactosidase assessed as release of p-nitrophenol at 1000 uM using p-nitrophenyl glycoside as substrate by spectrometric assay relative to control.
The species named for assay [6] is Bos taurus. In words: Inhibition of bovine liver beta-galactosidase assessed as release of p-nitrophenol at 1000 uM using p-nitrophenyl glycoside as substrate by spectrometric assay relative to control.
In assay [7] the target is T2, Alpha-mannosidase (Canavalia ensiformis) (UniProt C0HJB3).
T2 sequence (whole entry): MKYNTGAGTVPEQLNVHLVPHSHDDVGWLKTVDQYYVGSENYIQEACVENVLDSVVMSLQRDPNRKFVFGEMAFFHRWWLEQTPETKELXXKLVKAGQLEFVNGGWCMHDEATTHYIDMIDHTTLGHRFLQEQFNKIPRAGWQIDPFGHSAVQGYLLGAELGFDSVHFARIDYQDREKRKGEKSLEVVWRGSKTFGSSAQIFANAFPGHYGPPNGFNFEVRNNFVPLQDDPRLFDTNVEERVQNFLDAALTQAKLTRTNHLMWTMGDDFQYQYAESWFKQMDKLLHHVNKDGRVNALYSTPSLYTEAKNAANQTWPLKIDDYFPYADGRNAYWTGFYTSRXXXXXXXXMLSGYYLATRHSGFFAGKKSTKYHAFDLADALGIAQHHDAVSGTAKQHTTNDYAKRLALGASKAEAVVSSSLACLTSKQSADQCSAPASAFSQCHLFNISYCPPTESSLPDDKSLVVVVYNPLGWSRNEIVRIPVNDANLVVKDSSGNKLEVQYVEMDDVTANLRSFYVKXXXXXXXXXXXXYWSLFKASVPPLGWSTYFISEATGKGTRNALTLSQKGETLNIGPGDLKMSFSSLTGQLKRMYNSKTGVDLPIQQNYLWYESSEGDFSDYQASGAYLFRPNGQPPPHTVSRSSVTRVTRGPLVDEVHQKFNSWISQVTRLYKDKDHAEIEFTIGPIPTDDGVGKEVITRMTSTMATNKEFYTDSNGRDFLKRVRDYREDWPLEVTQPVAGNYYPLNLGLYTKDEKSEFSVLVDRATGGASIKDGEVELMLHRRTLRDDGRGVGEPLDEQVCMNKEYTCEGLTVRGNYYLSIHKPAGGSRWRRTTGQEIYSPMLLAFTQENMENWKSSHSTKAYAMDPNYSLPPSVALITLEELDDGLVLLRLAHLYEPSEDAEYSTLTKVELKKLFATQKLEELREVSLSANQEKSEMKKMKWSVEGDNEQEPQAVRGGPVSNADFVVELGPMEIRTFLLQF
In words: Inhibition of jack bean alpha-mannosidase assessed as release of p-nitrophenol at 1000 uM using p-nitrophenyl glycoside as substrate by spectrometric assay relative to control.

Another assay deals with Helix pomatia. As to the kind of experiment: Inhibition of snail beta-mannosidase assessed as release of p-nitrophenol at 1000 uM using p-nitrophenyl glycoside as substrate by spectrometric assay relative control.
Assay [8] has as its target T3, Tissue alpha-L-fucosidase (Bos taurus) (UniProt Q2KIM0).
T3 sequence (whole entry): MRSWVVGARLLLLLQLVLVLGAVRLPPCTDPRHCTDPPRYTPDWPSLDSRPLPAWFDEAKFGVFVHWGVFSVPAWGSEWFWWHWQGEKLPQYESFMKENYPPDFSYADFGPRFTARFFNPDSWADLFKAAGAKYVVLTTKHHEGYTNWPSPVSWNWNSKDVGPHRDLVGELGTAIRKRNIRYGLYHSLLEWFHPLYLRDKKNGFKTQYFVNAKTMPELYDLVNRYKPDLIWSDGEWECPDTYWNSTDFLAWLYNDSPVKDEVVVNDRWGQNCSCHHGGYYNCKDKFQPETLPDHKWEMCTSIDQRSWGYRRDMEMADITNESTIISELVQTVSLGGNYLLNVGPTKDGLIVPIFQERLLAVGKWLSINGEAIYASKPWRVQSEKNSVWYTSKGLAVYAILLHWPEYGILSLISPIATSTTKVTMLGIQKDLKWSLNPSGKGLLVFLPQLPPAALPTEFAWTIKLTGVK
In words: Inhibition of bovine kidney alpha-L-fucosidase assessed as release of p-nitrophenol at 1000 uM using p-nitrophenyl glycoside as substrate by spectrometric assay relative to control.

For the next assay, the system named is Aspergillus niger. As to the kind of experiment: Inhibition of Aspergillus niger amyloglucosidase assessed as release of p-nitrophenol at 1000 uM using p-nitrophenyl glycoside as substrate by spectrometric assay relative to control.
The next assay deals with Penicillium decumbens. As to the kind of experiment: Inhibition of Penicillium decumbens alpha-L-rhamnosidase assessed as release of p-nitrophenol at 1000 uM using p-nitrophenyl glycoside as substrate by spectrometric assay relative to control.
A short description of assay [9]: Inhibition of Escherichia coli beta-glucuronidase assessed as release of p-nitrophenol using p-nitrophenyl glycoside as substrate by spectrometric assay.
Assay [10] is filed under the species Bos taurus. As to the kind of experiment: Inhibition of bovine liver beta-glucronidase assessed as release of p-nitrophenol at 1000 uM using p-nitrophenyl glycoside as substrate by spectrometric assay relative to control.
A short description of assay [11]: Inhibition of yeast alpha-glucosidase assessed as release of p-nitrophenol using p-nitrophenyl glycoside as substrate by spectrometric assay. Details: species or system Saccharomyces cerevisiae.
Assay [12] in a line: Inhibition of bovine liver beta-galactosidase assessed as release of p-nitrophenol using p-nitrophenyl glycoside as substrate by spectrometric assay. Also on record: species or system Bos taurus.
The subject of the next assay is Escherichia coli. In words: Inhibition of Escherichia coli beta-glucuronidase assessed as release of p-nitrophenol at 1000 uM using p-nitrophenyl glycoside as substrate by spectrometric assay relative to control.
The next assay relates to Oryza sativa. In words: Inhibition of rice alpha-glucosidase assessed as release of p-nitrophenol at 1000 uM using p-nitrophenyl glycoside as substrate by spectrometric assay relative to control.
Assay [13] has as its target Sucrase-isomaltase, intestinal (Rattus norvegicus) (UniProt P23739). As to the kind of experiment: Inhibition of rat intestinal sucrase assessed as release of p-nitrophenol at 1000 uM using p-nitrophenyl glycoside as substrate by spectrometric assay relative to control.
In assay [14] the target is T1, Lysosomal alpha-glucosidase. In words: Inhibition of human lysosomal alpha glucosidase assessed as release of p-nitrophenol at 1000 uM using p-nitrophenyl glycoside as substrate by spectrometric assay relative to control.
Assay [15] can be described thus: Inhibition of bovine liver beta-glucosidase assessed as release of p-nitrophenol using p-nitrophenyl glycoside as substrate by spectrometric assay. Details: species or system Bos taurus.
Assay [16] in a line: Inhibition of Aspergillus niger amyloglucosidase assessed as release of p-nitrophenol using p-nitrophenyl glycoside as substrate by spectrometric assay.
Assay [17] can be described thus: Inhibition of porcine kidney alpha-trehalase assessed as release of p-nitrophenol using p-nitrophenyl glycoside as substrate by spectrometric assay. Also on record: species or system Sus scrofa.

A value given as a limit tells only on which side of the number the result lay.

Chain of Alpha-galactosidase (Coffea arabica) (Q42656 16-378 limits assumed): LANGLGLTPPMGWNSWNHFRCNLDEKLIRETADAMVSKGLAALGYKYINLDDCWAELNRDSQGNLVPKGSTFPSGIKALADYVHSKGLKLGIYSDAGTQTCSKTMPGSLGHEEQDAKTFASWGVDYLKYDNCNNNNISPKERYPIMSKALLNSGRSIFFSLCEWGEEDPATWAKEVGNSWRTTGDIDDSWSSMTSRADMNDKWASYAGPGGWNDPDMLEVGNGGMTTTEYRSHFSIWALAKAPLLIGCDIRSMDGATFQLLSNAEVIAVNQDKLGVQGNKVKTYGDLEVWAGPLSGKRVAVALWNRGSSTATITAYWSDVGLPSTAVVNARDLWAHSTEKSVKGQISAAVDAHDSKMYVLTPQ
Chain of Sucrase-isomaltase, intestinal (P23739 1-1013 limits assumed): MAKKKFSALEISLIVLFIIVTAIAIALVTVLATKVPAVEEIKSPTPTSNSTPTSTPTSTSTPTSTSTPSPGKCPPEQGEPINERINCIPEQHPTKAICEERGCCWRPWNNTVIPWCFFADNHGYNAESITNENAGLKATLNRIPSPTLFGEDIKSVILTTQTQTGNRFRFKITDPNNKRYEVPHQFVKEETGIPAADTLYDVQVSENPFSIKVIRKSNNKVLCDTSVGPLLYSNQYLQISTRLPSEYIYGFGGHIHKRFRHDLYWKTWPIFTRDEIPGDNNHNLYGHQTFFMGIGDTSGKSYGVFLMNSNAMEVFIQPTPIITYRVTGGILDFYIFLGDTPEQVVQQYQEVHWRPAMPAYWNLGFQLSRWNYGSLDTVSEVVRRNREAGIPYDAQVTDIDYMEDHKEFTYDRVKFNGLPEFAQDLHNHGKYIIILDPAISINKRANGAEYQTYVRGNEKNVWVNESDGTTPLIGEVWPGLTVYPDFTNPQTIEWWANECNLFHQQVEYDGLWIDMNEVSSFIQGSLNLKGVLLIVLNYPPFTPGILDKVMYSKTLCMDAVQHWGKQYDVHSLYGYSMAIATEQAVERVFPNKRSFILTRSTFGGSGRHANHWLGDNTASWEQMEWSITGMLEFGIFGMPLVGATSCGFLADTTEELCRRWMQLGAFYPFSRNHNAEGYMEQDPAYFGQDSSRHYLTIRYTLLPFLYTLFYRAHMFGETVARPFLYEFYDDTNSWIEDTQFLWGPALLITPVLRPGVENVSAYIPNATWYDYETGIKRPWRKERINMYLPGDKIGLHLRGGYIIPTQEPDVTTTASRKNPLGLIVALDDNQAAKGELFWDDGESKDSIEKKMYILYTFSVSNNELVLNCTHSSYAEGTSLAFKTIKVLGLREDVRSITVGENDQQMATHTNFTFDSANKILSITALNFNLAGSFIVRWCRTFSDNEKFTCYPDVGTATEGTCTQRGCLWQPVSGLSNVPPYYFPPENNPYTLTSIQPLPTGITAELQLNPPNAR
Chain of Sucrase-isomaltase, intestinal (P23739 1014-1841 limits assumed): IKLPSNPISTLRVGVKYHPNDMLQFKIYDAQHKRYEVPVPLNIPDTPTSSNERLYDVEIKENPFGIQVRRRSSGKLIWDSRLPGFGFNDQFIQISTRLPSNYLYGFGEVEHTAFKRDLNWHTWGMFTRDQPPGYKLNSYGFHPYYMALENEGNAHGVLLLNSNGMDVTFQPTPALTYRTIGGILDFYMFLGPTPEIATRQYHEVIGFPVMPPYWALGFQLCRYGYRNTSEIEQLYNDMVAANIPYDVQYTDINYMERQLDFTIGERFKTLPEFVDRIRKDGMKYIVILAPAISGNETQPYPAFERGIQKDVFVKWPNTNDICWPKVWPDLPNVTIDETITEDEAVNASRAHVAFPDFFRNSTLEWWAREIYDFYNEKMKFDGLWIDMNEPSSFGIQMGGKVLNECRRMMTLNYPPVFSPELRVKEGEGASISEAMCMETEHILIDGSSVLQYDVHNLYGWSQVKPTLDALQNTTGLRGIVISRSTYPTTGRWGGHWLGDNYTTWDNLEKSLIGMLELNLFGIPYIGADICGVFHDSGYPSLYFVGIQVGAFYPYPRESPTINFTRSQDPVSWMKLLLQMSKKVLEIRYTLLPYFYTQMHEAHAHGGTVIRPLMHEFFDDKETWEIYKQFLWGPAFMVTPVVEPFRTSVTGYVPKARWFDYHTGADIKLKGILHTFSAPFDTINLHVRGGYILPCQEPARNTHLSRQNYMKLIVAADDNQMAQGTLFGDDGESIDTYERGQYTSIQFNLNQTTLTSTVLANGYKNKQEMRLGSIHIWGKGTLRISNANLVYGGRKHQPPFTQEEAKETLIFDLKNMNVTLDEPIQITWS
Chain of Sucrase-isomaltase, intestinal (Rattus norvegicus) (P23739 1-1013 limits assumed): as the sequence (P23739 1-1013 limits assumed) above
Chain of Sucrase-isomaltase, intestinal (Rattus norvegicus) (P23739 1014-1841 limits assumed): as the sequence (P23739 1014-1841 limits assumed) above

Regarding `CCCC[C@]1(CO)NC[C@@H](O)[C@@H]1O`, the inhibition was 2.4% in the assay filed under Sus scrofa; 8% in the assay on Prunus dulcis; 32.7% in the assay with Saccharomyces cerevisiae; 34.3% in the assay filed under Bos taurus [4]; 4.6% in [5]; 36.9% in the assay listed under Bos taurus [6]. Also, the inhibition was found to be 1.9% in [7]; 3.6% with Helix pomatia; 20.8% in [8]; 2% with Aspergillus niger; 11.3% in the assay with Penicillium decumbens; 7.2% in the assay filed under Bos taurus [10]. Further, the IC50 in [1] worked out at 2.3 µM; in [2], 79 µM; in assay [3] it was 59 µM; in [9], 774 µM.

On to `CCCCCCCCC[C@]1(CO)NC[C@@H](O)[C@@H]1O`, for which the inhibition amounted to 6.4% in the assay listed under Sus scrofa; 6.8% in the assay with Prunus dulcis; 49.2% in the assay filed under Bos taurus [4]; 2.5% in [5]; 0% in [7]; 0% in the assay with Helix pomatia. Moreover, the inhibition amounted to 0% in assay [8]; 3.9% with Aspergillus niger; 0% in the assay on Penicillium decumbens; 31.6% in the assay on Escherichia coli; 4.6% in the assay filed under Bos taurus [10]. Further, the IC50 amounted to 455 µM in assay [1]; 130 µM in [2]; 116 µM in assay [11]; 727 µM in assay [3]; 477 µM in assay [12].

Regarding `OC[C@@]1(c2ccccc2)NC[C@@H](O)[C@@H]1O`, the inhibition was found to be 0.8% in the assay filed under Sus scrofa; 2.3% in the assay on Prunus dulcis; 22% with Saccharomyces cerevisiae; 18.6% with Oryza sativa; 42.8% in [13]; 35% in assay [14]. In addition, the inhibition in the assay listed under Bos taurus [4] was 29.6%; in [5] it was 9.9%; in the assay filed under Bos taurus [6], 34.1%; in assay [7] it was 0%; in the assay with Helix pomatia it was 0%; in assay [8] it was 0%. Moreover, the inhibition in the assay on Aspergillus niger was determined as 0%; with Penicillium decumbens, 0%; in the assay on Escherichia coli, 7.3%; in the assay listed under Bos taurus [10], 1.8%.

Consider `OC[C@H]1NC[C@@H](O)[C@@H]1O`, for which the IC50 turned out to be 638 µM in [15], 0.15 µM in assay [11], 362 µM in assay [16] and 4.8 µM in [17]. The inhibition in the assay listed under Bos taurus [6], in the assay with Helix pomatia and with Penicillium decumbens was < 50% throughout.
